{"source": "patent US12433844B2", "about": "“Preparation method and application of tumor microparticles encapsulating metabolic inhibitors” (Union Hospital, Tongji Medical College, Huazhong University …, priority 2022, dated 2025)", "test_system": "lung metastasis", "assay": "Lung metastatic nodules count (H&E staining)", "format": "in vivo, mice", "details": "compared to the PBS intervention group", "protocol": "In order to explore the anti-tumor effect of TMP-F combined with chemotherapy, two doses of cisplatin chemotherapy (Cis) are added during the intervention process. […] In addition, the lungs of mice are extracted, hematoxylin-eosin (H&E) staining is performed on the lungs of mice, and the number of lung metastatic nodules under the light microscope are observed and counted.", "data": [{"smiles": "N.N.[Cl][Pt][Cl]", "note": "[chemotherapy alone, cisplatin]", "values": [{"measurement": "lung metastasis (number of lung metastatic nodules)", "result": "inhibits the lung metastasis"}]}]}
